What all share (format): cell-based, human
The subject of data set [1] is CFTR expression. As to the kind of experiment: Induction of CFTR expression in hepatoblasts differentiated to cholangiocytes in monolayer (co-culture with OP9-Jag1). To be noted: hepatoblasts co-cultured with OP9-Jag1, monolayer, 6 days. As for the experimental part: OP9 cells were maintained as described previously. 30 Gray irradiated OP9 cells were plated on 2.5% Matrigel coated wells (12 well plates) at a concentration of 200,000 cells per well in alpha-modified minimum essential media (a-MEM) supplemented with glutamine (2 mM) and 20% fetal bovine serum. To induce the cholangiocytes differentiation, day 27 hepatoblasts were dissociated using collagenase type I enzyme and then plated onto the irradiated OP9 cells. The plated cells were cultured in H21 DMEM/Ham's F12 (3:1) media supplemented with 0.1% BSA, 1% vol/vol B27 supplement, ascorbic acid, glutamine, MTG, HGF (20 ng/ml), and epidermal growth factor (EGF, 50 ng/ml) for 4 days. […] To promote the maturation of cholangiocytes that express primary cilia and 4D9, the cells were cultured with DMEM/F12 medium with 0.1% BSA, 1% vol/vol B27 supplement, ascorbic acid, glutamine, MTG, Noggin (50 ng/ml), ROCK inhibitor Y-27632 (5 μM) and Forskolin (FSK, 5 μM) for 12 days. The medium for all steps of cholangiocytes differentiation were changed every two days. The cells were maintained in an ambient O2 incubator.
It has previously been reported that it is possible to generate cholangiocytes that express a number of markers that are indicative of mature cells including the cystic fibrosis transmembrane conductance regulator (CFTR) gene, in which mutations cause cystic fibrosis. The development of mature cholangiocytes was dependent on growth of the cells as cysts in 3D semi-solid cultures consisting of Matrigel and collagen. While this approach yielded relatively mature cholangiocytes, the culture system was not amenable to cell expansion or high throughput screening (e.g., for drugs against cystic fibrosis and other biliary diseases). To improve the differentiation efficiency in monolayer cultures, a panel of cytokines and small molecules that are known to play a role in bile duct development were screened to identify those that would promote the upregulation of CFTR expression as an indication of maturation. Since Notch signaling is required for the production of cholangiocytes, hepatoblasts were cultured on either OP9-Jagl cells or Matrigel for 6 days as previously described. […] To further investigate the role of RA signaling, the effects of specific RA receptor agonists as well as a pan antagonist also were tested.

Data set [2] relates to hPSC-derived hepatocytes. As to the kind of experiment: Zonation of hPSC-derived hepatocytes by Wnt manipulation (gene expression). To be noted: added days 38 to 56 with T3. The protocol: Day 27 hepatoblasts were cultured in DMEM/F12 (50:50) with 0.2% BSA, 1% vol/vol ITS-X, ascorbic acid, glutamine, MTG, Dex (40 ng/ml), and OSM (5 ng/ml) for 6 days in monolayer. Day 33 hepatoblasts were dissociated using collagenase type 1 enzyme to make a small cluster of hepatoblasts. The dissociated small clusters were maintained in a low cluster culture dish and cultured in DMEM/F12 (50:50) medium supplemented with 0.2% BSA, 1% vol/vol ITS-X, ascorbic acid, 1% vol/vol chemically defined lipid mix medium (Thermo Fisher Scientific), 0.5% vol/vol B27, glutamine, MTG, Dex (40 ng/ml), and CHIR99021 (1 μM) for 6 days to promote the maturation in 3D aggregates. […]

Data set [3] deals with hPSC-derived hepatocytes. As to the kind of experiment: Maturation of hPSC-derived hepatocytes: AFP expression by flow cytometry and qRT-PCR. The settings on record: added days 38 to 56, aggregates, 40 ng/ml dexamethasone. Background: In flow cytometry, cells or beads pass a laser one at a time.
Method: For these studies, T3 was added to the cultures during the maturation step, from days 38 to 56. During this stage, the cells are cultured as aggregate in the presence of 40 ng/ml dexamethasone, as previously described.
In data set [4] the test system is hPSC-derived cholangiocytes. The experiment in a line: Flow cytometric screen for DHC5-4D9 reactive mature cholangiocytes in monolayer. To be noted: added to cultures for 6 days, flow cytometry.
Method: 30 Gray irradiated OP9 cells were plated on 2.5% Matrigel coated wells (12 well plates) at a concentration of 200,000 cells per well in alpha-modified minimum essential media (a-MEM) supplemented with glutamine (2 mM) and 20% fetal bovine serum. To induce the cholangiocytes differentiation, day 27 hepatoblasts were dissociated using collagenase type I enzyme and then plated onto the irradiated OP9 cells. The plated cells were cultured in H21 DMEM/Ham's F12 (3:1) media supplemented with 0.1% BSA, 1% vol/vol B27 supplement, ascorbic acid, glutamine, MTG, HGF (20 ng/ml), and epidermal growth factor (EGF, 50 ng/ml) for 4 days. […] To promote the maturation of cholangiocytes that express primary cilia and 4D9, the cells were cultured with DMEM/F12 medium with 0.1% BSA, 1% vol/vol B27 supplement, ascorbic acid, glutamine, MTG, Noggin (50 ng/ml), ROCK inhibitor Y-27632 (5 μM) and Forskolin (FSK, 5 μM) for 12 days. […]
To identify pathways that promote further maturation of the hPSC-derived cholangiocytes, a screening approach was used based on flow cytometric identification of cells that express the epitope recognized by the antibody DHCS-4D9, which stains mature bile ductal cells (cholangiocytes) in the adult liver. […] Following this maturation step, the cells were harvested and analyzed by flow cytometry for reactivity with DHC5-4D9.

Entries after “also recorded” stand apart in the source; their conditions may differ.

Data on 8 molecules can be found in patent US20220233605A1, “METHODS OF MAKING AND USING LIVER CELLS” (University Health Network, priority 2019, published 2022).

For the molecule `CCCCCCCCc1ccc(-c2ccc(C(=O)O)cc2)cc1` [AC55649], in data set [1], the CFTR expression entry is listed as “induced CFTR expression”.

For `CC1(C)CC=C(C#Cc2ccccc2)c2cc(/C=C/c3ccc(C(=O)O)cc3)ccc21` [BMS493], the CFTR expression entry in data set [1] was “inhibited the induction of CFTR expression”.

For `O=C(O)c1ccc2cc(-c3ccc(O)c(C45CC6CC(CC(C6)C4)C5)c3)ccc2c1` [CD437], the CFTR expression entry in data set [1] was “induced CFTR expression”.

For `Cc1c[nH]c(-c2cnc(NCCNc3ccc(C#N)cn3)nc2-c2ccc(Cl)cc2Cl)n1` [CHIR, 6-[[2-[[4-(2,4-Dichlorophenyl)-5-(5-methyl-1H-imidazol-2-yl)-2-pyrimidinyl]amino]ethyl]amino]-3-pyridinecarbonitrile], in data set [2], the “zonal gene expression of hepatocytes” value is “expressed genes associated with Zone 3 hepatocytes”.

`N[C@@H](Cc1cc(I)c(Oc2ccc(O)c(I)c2)c(I)c1)C(=O)O` [T3, Triiodothyronine]: the “levels of AFP expression” value in data set [3] is on record as “dramatic decrease in the levels of AFP expression; also recorded: significantly lower than the levels observed in cells treated with cAMP”.

Turning to `Oc1nc(-c2ccc(C(F)(F)F)cc2)nc2c1CSCC2` [XAV], the “zonal gene expression of hepatocytes” value in data set [2] was “expressed genes associated with Zone 1 hepatocytes”.

AM580: the CFTR expression result in data set [1] was “induced CFTR expression”.

B1: N: Noggin, inhibition of the BMP pathway (protein, UniProt Q13253 28-232, looked up)
Noggin: QHYLHIRPAPSDNLPLVDLIEHPDPIFDPKEKDLNETLLRSLLGGHYDPGFMATSPPEDRPGGGGGAAGGAEDLAELDQLLRQRPSGAMPSEIKGLEFSEGLAQGKKQRLSKKLRRKLQMWLWSQTFCPVLYAWNDLGSRFWPRYVKVGSCFSKRSCSVPEGMVCKPSKSVHLTVLRWRCQRRGGQRCGWIPIQYPIISECKCSC
For the molecule B1, the “development of DHC5-4D9 cells” value in data set [4] is given as “promoted the development of DHC5-4D9 cells”.
